Our source for the IC50 values is patent publication US7157468B2, “Pyrazole derivatives” (Pfizer Inc., priority 2002, dated 2007).

This test deals with T1, HIV-1 reverse transcriptase (Human immunodeficiency virus type 1 group M subtype B, UniProt P04585).
T1 construct: purified recombinant HIV-1 reverse transcriptase (RT, EC, 2.7.7.49); made in house; host or cells: Escherichia coli
The experiment in a line: Inhibition of HIV-1 Reverse Transcriptase Enzyme. Format: biochemical. Particulars: purified recombinant HIV-1 RT expressed in Escherichia Coli; [3H]-SPA or [3H]-flashplate enzyme assay; 5% final DMSO. The source says: The activity of the compounds of the invention as reverse transcriptase inhibitors may be measured using the following assay.
Inhibition of HIV-1 Reverse Transcriptase Enzyme
Using purified recombinant HIV-1 reverse transcriptase (RT, EC, 2.7.7.49) obtained by expression in Escherichia Coli, a 96-well plate assay system is established for assaying a large number of samples using either the Poly(rA)-oligo(dT) Reverse Transcriptase [3H]-SPA enzyme assay system (Amersham NK9020) or the [3H]-flashplate enzyme assay system (NEN-SMP 103) and following the manufacturer's recommendations. The compounds are dissolved in 100% DMSO and diluted with the appropriate buffer to a 5% final DMSO concentration. The inhibitory activity is expressed in percent inhibition relative to DMSO control.

Molecules are shown by their SMILES.

For the molecule `Cc1n[nH]c(CC(=O)N2CCc3ccccc3C2)c1Oc1cc(Cl)cc(Cl)c1` [Example 8, 2-[4-(3,5-Dichloro-phenoxy)-5-methyl-2H-pyrazol-3-yl]-1-(3,4-dihydro-1H-isoquinolin-2-yl)-ethanone], the IC50 worked out at 0.01 µM.

As for `Cc1n[nH]c(CC(=O)N2CCc3ccccc3C2)c1Oc1cc(Cl)cc(C#N)c1` [Example 17], the IC50 came to 0.064 µM.
